Columns and labels:
Test in all cases: biochemical
[1] = target: T1, panel of 374 wild-type kinases (Homo sapiens, UniProt P43403); settings: read-out: % Enzyme Activity (relative to DMSO controls), kinase ZAP70
T1 construct: purchased Reaction Biology Corporation
T1 sequence (P43403 1-619): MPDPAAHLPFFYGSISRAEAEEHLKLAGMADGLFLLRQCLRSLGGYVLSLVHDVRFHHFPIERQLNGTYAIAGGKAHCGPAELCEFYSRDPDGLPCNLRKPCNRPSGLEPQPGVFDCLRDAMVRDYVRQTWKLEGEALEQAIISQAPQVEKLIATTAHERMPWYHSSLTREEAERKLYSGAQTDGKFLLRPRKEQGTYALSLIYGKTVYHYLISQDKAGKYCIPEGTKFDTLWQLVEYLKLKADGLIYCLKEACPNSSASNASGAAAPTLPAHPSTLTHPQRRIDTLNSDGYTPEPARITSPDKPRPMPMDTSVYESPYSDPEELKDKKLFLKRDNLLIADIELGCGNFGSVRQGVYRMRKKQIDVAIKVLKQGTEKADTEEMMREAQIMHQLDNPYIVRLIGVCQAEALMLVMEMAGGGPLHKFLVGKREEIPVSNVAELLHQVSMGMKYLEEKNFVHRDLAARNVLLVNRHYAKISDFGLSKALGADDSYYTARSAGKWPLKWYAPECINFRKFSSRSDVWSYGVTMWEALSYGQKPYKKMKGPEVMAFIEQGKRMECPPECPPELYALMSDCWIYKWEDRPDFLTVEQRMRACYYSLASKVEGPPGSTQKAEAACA

[2] = target: T2, panel of 374 wild-type kinases (Homo sapiens, UniProt P42680); settings: read-out: % Enzyme Activity (relative to DMSO controls), kinase TEC
T2 construct: purchased Reaction Biology Corporation
T2 sequence (P42680 1-631): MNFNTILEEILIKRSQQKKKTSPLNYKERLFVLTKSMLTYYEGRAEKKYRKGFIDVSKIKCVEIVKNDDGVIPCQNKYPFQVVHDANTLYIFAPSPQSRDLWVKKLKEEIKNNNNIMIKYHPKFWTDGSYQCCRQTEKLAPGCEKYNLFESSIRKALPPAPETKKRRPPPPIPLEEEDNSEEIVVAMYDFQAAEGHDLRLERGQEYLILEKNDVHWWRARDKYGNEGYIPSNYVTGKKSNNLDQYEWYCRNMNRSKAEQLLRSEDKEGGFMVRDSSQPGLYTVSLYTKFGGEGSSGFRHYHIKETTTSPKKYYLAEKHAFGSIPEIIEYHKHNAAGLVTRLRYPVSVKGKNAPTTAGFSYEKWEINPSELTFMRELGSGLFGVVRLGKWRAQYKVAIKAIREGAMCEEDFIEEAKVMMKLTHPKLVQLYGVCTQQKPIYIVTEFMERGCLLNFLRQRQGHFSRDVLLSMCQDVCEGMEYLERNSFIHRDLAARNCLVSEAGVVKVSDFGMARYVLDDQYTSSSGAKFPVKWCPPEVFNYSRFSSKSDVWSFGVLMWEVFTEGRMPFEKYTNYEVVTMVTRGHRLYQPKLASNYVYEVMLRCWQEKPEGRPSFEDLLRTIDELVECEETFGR

[3] = target: T3, panel of 374 wild-type kinases (Homo sapiens, UniProt Q9Y5S2); settings: read-out: % Enzyme Activity (relative to DMSO controls), MRCKb/CDC42BPB
T3 construct: purchased Reaction Biology Corporation

[4] = target: T4, panel of 374 wild-type kinases (Homo sapiens, UniProt P00519); settings: read-out: % Enzyme Activity (relative to DMSO controls), ABL1
T4 construct: purchased Reaction Biology Corporation

[5] = target: T5, panel of 374 wild-type kinases (Homo sapiens, UniProt Q9BYP7); settings: read-out: % Enzyme Activity (relative to DMSO controls), kinase WNK3
T5 construct: purchased Reaction Biology Corporation

[6] = target: T6, panel of 374 wild-type kinases (Homo sapiens, UniProt P17252); settings: read-out: % Enzyme Activity (relative to DMSO controls), kinase PKCa
T6 construct: purchased Reaction Biology Corporation

[7] = target: T7, panel of 374 wild-type kinases (Homo sapiens, UniProt P29320); settings: read-out: % Enzyme Activity (relative to DMSO controls), EPHA3
T7 construct: purchased Reaction Biology Corporation
T7 sequence (P29320 21-983): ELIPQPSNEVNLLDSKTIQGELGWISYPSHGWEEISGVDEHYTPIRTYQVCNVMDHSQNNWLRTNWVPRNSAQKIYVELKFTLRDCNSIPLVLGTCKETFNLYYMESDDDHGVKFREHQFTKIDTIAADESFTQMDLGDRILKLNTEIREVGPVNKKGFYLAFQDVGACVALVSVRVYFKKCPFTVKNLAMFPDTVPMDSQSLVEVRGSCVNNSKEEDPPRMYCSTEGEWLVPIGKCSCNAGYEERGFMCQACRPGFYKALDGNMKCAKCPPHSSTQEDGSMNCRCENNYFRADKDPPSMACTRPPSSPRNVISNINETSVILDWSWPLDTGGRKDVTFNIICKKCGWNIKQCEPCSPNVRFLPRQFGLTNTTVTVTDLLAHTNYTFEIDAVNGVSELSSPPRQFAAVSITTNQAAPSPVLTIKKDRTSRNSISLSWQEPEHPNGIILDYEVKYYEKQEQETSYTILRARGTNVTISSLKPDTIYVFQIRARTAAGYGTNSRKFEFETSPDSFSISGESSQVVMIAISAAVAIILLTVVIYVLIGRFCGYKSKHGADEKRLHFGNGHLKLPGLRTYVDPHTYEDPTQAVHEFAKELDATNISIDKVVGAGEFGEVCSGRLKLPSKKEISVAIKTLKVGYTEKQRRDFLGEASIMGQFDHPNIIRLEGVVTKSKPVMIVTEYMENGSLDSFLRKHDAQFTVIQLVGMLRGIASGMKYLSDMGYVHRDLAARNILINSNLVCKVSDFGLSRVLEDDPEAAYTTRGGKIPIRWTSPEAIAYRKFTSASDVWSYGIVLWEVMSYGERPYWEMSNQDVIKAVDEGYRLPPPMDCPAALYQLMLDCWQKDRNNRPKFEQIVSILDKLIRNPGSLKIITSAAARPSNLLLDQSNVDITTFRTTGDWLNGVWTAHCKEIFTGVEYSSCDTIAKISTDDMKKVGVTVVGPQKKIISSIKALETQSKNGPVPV

T4 sequence (P00519 whole entry): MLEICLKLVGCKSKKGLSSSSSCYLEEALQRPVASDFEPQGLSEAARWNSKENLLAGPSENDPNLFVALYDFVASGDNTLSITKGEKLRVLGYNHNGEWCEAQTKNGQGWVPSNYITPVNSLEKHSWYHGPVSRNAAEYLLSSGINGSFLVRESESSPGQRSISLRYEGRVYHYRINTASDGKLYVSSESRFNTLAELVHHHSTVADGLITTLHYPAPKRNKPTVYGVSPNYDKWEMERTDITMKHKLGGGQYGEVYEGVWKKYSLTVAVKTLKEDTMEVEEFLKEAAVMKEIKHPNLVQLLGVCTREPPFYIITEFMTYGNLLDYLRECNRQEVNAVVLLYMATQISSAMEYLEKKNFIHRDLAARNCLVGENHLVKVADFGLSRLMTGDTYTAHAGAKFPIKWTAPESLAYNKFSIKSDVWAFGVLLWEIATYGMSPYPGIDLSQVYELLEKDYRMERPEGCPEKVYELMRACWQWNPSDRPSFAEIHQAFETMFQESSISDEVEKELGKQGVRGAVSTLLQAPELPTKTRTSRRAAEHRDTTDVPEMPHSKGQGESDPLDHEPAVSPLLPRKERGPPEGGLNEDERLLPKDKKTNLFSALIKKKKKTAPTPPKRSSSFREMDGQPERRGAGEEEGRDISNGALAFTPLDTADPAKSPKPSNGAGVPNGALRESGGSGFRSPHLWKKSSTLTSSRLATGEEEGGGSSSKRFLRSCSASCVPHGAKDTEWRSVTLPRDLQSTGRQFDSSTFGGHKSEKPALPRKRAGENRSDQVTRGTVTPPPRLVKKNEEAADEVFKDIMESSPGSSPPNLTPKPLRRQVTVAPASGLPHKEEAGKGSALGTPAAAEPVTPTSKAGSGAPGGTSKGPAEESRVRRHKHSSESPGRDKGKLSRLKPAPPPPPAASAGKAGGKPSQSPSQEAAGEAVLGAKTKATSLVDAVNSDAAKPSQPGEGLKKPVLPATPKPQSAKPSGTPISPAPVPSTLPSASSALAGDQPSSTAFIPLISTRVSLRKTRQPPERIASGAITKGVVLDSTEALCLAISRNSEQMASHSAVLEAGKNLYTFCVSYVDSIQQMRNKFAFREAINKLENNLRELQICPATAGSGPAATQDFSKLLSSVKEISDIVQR
T3 sequence (Q9Y5S2 whole entry): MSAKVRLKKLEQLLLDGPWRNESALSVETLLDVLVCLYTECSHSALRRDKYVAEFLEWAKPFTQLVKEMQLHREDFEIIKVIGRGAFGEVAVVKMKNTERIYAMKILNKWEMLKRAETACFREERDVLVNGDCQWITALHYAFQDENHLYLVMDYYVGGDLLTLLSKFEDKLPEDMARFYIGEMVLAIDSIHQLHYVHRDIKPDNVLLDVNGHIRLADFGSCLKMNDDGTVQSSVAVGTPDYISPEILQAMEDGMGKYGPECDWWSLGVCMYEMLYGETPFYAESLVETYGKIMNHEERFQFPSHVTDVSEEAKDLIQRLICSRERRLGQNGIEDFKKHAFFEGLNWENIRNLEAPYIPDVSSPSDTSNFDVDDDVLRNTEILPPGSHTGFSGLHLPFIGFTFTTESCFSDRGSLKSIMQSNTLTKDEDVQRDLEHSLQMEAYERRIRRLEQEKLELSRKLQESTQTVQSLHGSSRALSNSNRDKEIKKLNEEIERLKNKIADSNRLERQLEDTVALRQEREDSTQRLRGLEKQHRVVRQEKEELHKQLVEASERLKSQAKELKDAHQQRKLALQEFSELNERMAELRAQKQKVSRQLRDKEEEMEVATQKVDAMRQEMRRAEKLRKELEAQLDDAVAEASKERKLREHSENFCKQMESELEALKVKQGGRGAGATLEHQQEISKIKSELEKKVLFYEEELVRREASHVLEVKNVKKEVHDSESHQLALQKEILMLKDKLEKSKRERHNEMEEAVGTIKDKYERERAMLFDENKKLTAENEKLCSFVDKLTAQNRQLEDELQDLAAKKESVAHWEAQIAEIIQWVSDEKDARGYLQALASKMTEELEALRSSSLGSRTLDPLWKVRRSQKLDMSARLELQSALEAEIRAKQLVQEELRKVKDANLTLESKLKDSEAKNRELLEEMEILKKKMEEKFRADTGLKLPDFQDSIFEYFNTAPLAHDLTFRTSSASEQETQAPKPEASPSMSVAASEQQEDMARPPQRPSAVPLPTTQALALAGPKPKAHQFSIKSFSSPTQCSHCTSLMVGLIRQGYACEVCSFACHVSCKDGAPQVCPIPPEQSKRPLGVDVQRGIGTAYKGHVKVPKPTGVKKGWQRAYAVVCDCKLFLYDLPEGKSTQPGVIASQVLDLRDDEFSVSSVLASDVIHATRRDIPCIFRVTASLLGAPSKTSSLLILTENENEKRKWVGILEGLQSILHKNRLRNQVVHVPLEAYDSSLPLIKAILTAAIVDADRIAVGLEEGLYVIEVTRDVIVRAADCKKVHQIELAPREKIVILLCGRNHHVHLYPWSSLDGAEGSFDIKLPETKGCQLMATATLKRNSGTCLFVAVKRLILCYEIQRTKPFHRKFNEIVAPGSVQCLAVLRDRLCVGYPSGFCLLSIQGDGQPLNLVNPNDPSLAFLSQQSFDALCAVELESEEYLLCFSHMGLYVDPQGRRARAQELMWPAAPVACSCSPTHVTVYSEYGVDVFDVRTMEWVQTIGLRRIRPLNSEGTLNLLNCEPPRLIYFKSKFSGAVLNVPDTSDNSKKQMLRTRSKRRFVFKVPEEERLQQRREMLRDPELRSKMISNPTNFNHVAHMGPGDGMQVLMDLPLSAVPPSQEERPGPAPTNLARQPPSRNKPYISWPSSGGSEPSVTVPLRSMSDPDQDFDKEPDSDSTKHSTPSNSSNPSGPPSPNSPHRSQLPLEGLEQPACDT

## O=C(Nc1cnn(-c2csc(C(=O)NC3COC3)c2)c1)Nc1ccccc1Cl [Compound 17, 4-(4-(3-(2-chlorophenyl)ureido)-1H-pyrazol-1-yl)-N-(oxetan-3-yl)thiophene-2-carboxamide]
[1]
  remaining activity at 5 µM: 102%
[2]
  remaining activity at 5 µM: 97.2%
[3]
  remaining activity at 5 µM: 97.1%
[4]
  remaining activity at 5 µM: 83.4%
[5]
  remaining activity at 5 µM: 99.5%
[6]
  remaining activity at 5 µM: 101%
[7]
  remaining activity at 5 µM: 104%

## O=C(Nc1cnn(-c2csc(C(=O)NC3COC3)c2)c1)Nc1c(F)cccc1Cl [Compound 25, 4-(4-(3-(2-chloro-6-fluorophenyl)ureido)-1H-pyrazol-1-yl)-N-(oxetan-3-yl)thiophene-2-carboxamide]
[1]
  remaining activity at 5 µM: 104%
[2]
  remaining activity at 5 µM: 97.7%
[3]
  remaining activity at 5 µM: 89%
[4]
  remaining activity at 5 µM: 101%
[5]
  remaining activity at 5 µM: 91.8%
[6]
  remaining activity at 5 µM: 90.7%
[7]
  remaining activity at 5 µM: 96.1%

## Cc1sc(C(=O)NC2COC2)cc1-n1cc(NC(=O)Nc2c(F)cccc2Cl)cn1 [Compound 27, 4-(4-(3-(2-chloro-6-fluorophenyl)ureido)-1H-pyrazol-1-yl)-5-methyl-N-(oxetan-3-yl)thiophene-2-carboxamide]
[1]; 10 uM
  remaining activity at 10 µM: 103%
[2]; 10 uM
  remaining activity at 10 µM: 91.1%
[3]; 10 uM
  remaining activity at 10 µM: 112%
[4]; 10 uM
  remaining activity at 10 µM: 102%
[5]; 10 uM
  remaining activity at 10 µM: 102%
[6]; 10 uM
  remaining activity at 10 µM: 95.9%
[7]; 10 uM
  remaining activity at 10 µM: 109%

— patent US20240246942A1, “KINASE INHIBITORS FOR THE TREATMENT OF NEURODEGENERATIVE DISEASES” (priority 2020, published 2024)
